From patent US9580416B2, “Inhibitors of Bruton's tyrosine kinase” (PHARMACYCLICS LLC, priority 2014, dated 2017) come the findings set out here.

Each structure is given as a SMILES string.

Common to all, as to type: biochemical
The target in one assay is Lck (Homo sapiens, UniProt P06239). The assay can be described thus: Lck kinase activity, TR-FRET assay. Particulars: read-out: LCK (IC50). On the procedure: (§1) Btk kinase activity is determined using a time-resolved fluorescence resonance energy transfer (TR-FRET) methodology. Measurements are performed in a reaction volume of 50 μL using 96-well assay plates. Kinase enzyme, inhibitor, ATP (at the Km for the kinase), and 1 […] (Biotin-AVLESEEELYSSARQ-NH2) are incubated in a reaction buffer composed of 20 mM Tris, 50 mM NaCl, MgCl2 (5-25 mM depending on the kinase), MnCl2 (0-10 mM), 1 mM DTT, 0.1 mM EDTA, 0.01% bovine serum albumin, 0.005% Tween-20, and 10% DMSO at pH 7.4 for one hour. The reaction is quenched by the addition of 1.2 equivalents of EDTA (relative to divalent cation) in 25 μL of 1× Lance buffer (Perkin-Elmer). Streptavidin-APC (Perkin-Elmer) and Eu-labeled p-Tyr100 antibody (Perkin-Elmer) in 1× Lance buffer are added in a 25 μL volume to give final concentrations of 100 nM and 2.5 nM, respectively, and the mixture is allowed to incubate for one hour. The TR-FRET signal is measured on a multimode plate reader with an excitation wavelength (λEx) of 330 nm and detection wavelengths (λEm) of 615 and 665 nm. Activity is determined by the ratio of the fluorescence at 665 nm to that at 615 nm. For each compound, enzyme activity is measured at various concentrations of compound. Negative control reactions are performed in the absence of inhibitor in replicates of six, and two no-enzyme controls are used to determine baseline fluorescence levels. Inhibition constants, Ki(app), ware obtained using the program BatchKi (Kuzmic et al. (2000), Anal. Biochem. 286:45-50). IC50s are obtained according to the equation: IC50={Ki(app)/(1+[ATP]/Km^ATP)}+[E]total/2;
(§2) For all kinases, [ATP]=Km^ATP, [Btk]total=0.5 nM and [Lck]total=6 nM.

The next assay addresses EGFR (Homo sapiens, UniProt P00533). The assay can be described thus: Inhibition of a panel of kinases, in vitro HotSpot kinase assay: EGFR. Here is the method: The degree of inhibition of a panel of kinases is determined using the in vitro HotSpot kinase assay (purified enzymes, ^33P-ATP, an appropriate substrate and 1 uM ATP).
The target in a further assay is Btk (Homo sapiens, UniProt Q06187). Put plainly: Btk kinase activity, TR-FRET assay. Particulars: read-out: Btk (IC50). On the procedure:
as §1, §2
Background: TR-FRET usually uses a lanthanide donor and a delayed reading to cut background.

Lck, sequence (P06239 whole entry, species assumed): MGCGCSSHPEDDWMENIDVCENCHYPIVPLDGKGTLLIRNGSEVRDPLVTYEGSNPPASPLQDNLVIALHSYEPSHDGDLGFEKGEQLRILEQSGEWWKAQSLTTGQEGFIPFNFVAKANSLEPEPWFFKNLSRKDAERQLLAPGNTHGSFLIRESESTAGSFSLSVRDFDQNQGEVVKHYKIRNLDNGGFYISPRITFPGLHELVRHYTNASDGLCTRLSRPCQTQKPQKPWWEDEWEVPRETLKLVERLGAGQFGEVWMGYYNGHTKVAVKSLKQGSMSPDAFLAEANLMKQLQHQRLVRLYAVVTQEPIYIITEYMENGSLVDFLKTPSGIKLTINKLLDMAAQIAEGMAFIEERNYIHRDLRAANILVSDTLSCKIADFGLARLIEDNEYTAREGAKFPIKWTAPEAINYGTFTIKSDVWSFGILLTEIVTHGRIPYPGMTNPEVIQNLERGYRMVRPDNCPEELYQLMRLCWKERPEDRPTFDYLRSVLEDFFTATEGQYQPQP
Btk, sequence (Q06187 whole entry): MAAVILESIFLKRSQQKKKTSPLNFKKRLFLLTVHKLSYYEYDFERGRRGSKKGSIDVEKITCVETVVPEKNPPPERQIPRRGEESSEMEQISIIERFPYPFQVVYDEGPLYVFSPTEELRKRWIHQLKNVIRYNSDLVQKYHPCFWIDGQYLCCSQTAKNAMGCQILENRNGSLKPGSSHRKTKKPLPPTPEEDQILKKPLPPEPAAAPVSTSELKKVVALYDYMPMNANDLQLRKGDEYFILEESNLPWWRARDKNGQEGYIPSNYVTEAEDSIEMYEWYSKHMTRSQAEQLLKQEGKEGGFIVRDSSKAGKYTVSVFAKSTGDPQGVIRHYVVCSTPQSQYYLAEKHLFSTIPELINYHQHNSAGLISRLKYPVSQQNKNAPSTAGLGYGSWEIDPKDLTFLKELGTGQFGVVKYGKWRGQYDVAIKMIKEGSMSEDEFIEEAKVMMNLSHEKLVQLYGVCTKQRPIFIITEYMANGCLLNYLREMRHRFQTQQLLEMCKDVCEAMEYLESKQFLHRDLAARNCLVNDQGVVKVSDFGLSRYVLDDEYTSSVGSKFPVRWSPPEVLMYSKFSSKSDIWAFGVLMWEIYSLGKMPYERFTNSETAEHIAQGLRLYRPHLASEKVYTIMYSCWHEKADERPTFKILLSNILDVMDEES
EGFR, sequence (P00533 25-1210): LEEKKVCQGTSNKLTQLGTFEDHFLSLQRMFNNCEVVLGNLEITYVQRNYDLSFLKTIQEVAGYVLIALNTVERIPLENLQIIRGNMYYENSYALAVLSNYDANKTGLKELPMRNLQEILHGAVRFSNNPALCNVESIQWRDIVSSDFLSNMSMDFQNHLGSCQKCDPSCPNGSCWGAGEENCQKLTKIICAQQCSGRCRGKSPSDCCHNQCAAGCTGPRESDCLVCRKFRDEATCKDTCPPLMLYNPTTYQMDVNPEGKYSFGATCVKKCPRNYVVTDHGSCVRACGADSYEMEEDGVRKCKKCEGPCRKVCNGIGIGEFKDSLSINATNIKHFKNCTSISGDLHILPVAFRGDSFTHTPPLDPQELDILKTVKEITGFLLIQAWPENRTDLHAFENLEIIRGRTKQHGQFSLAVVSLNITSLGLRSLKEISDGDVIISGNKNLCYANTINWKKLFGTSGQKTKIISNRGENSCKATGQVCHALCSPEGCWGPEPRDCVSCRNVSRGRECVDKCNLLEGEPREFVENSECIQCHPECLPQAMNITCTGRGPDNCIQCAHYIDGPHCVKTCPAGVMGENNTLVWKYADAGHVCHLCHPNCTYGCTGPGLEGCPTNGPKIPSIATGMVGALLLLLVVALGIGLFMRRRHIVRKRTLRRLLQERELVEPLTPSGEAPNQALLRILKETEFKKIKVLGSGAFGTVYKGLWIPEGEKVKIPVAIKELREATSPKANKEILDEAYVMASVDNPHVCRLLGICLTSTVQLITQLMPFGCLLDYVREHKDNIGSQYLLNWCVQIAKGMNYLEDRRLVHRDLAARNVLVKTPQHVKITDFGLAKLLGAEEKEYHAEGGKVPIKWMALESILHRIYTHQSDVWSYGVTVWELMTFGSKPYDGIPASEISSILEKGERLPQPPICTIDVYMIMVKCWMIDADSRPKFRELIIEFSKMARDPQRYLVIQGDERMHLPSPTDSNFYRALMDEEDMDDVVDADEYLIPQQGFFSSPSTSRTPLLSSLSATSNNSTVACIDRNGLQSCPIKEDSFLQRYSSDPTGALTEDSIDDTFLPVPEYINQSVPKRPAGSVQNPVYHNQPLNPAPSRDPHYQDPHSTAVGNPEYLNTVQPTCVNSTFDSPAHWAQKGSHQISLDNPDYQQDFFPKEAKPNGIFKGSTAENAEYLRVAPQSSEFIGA

Turning to `Cc1cccc2nc(-c3ccc(Oc4ccnc5[nH]nc(N[C@@H]6CCCN(C(=O)C7CCN(C)CC7)C6)c45)cc3)oc12` [compound 184], the IC50 (commonly the point on the concentration scale where inhibition reaches its midpoint) on Lck is > 10000 nM; against EGFR, > 10000 nM; on Btk it was 1000 to 10000 nM.

Regarding `CN(C/C=C/C(=O)N1CC[C@@H](Nc2n[nH]c3ncnc(Oc4ccc(Oc5ccccc5)cc4)c23)C1)C1CC1` [compound 48], the values for the IC50 at Lck, against EGFR and at Btk were 1000 to 10000 nM, 100 to 1000 nM and 100 to 1000 nM, respectively.

As for `N#CCNC(=O)c1cc(Nc2n[nH]c3nccc(Oc4ccc(Oc5ccccc5)cc4)c23)ccn1` [compound 65], the half-inhibitory concentration (IC50) on Lck is < 100 nM; at EGFR, 100 to 1000 nM; at Btk, 100 to 1000 nM.

With `CNC(=O)/C(F)=C/c1cccc(Nc2n[nH]c3nccc(Oc4ccc(Oc5ccccc5)cc4)c23)c1` [compound 31, (2Z)-2-fluoro-N-methyl-3-(3-{[4-(4-phenoxyphenoxy)-1H-pyrazolo[3,4-b]pyridin-3-yl]amino}phenyl)prop-2-enamide], the IC50 on Lck, against EGFR and at Btk was 100 to 1000 nM in each case.

On to `CN(C)C/C=C/C(=O)N1CC[C@@H](Nc2n[nH]c3nccc(Oc4ccc(-c5ncco5)c(Cl)c4)c23)C1` [compound 16, (2E)-1-[(3R)-3-({4-[3-chloro-4-(1,3-oxazol-2-yl)phenoxy]-1H-pyrazolo[3,4-b]pyridin-3-yl}amino)pyrrolidin-1-yl]-4-(dimethylamino)but-2-en-1-one], for which the half-inhibitory concentration (IC50) on Lck is 1000 to 10000 nM; on EGFR, 1000 to 10000 nM; at Btk, 100 to 1000 nM.

As to `CN(C)C/C=C/C(=O)N1CC[C@@H](Nc2n[nH]c3ncnc(Oc4ccc(Oc5ccccc5)cc4)c23)C1` [compound 39], the 50% inhibitory concentration (IC50) on Lck was 100 to 1000 nM; against EGFR, < 100 nM; on Btk it was < 100 nM.

As to `CCNC(=O)N1CCCC(c2n[nH]c3nccc(Oc4ccc(C(=O)Nc5cc(C(F)(F)F)ccn5)cc4)c23)C1` (stereo not drawn) [compound 186], the IC50 on Lck lay in the range of 100 to 1000 nM; against EGFR, 1000 to 10000 nM; on Btk it was 100 to 1000 nM.

As for `CN(C/C=C/C(=O)N1CC[C@@H](Nc2n[nH]c3nccc(Oc4ccc(C(=O)Nc5cc(C6CC6)ccn5)cc4)c23)C1)C1CC1` [compound 60], the values for the half-maximal inhibitory concentration (IC50) on Lck, against EGFR and at Btk were 100 to 1000 nM, 1000 to 10000 nM and < 100 nM, respectively.

For the molecule `N#C/C(=C\c1ccccn1)C(=O)N1CC[C@@H](Nc2n[nH]c3nccc(Oc4ccc(Oc5ccccc5)cc4)c23)C1` [compound 26, (2E)-2-[(E)-(3R)-3-{[4-(4-phenoxyphenoxy)-1H-pyrazolo[3,4-b]pyridin-3-yl]amino}pyrrolidine-1-carbonyl]-3-(pyridin-2-yl)prop-2-enenitrile], the IC50 on Lck was 100 to 1000 nM; against EGFR it was 100 to 1000 nM; on Btk it was < 100 nM.

Regarding `NC(=O)c1cc(Nc2n[nH]c3nccc(Oc4ccc(Oc5ccccc5)cc4)c23)ccn1` [compound 59], the IC50 is < 100 nM at Lck, 100 to 1000 nM against EGFR and 100 to 1000 nM at Btk.

For `N#Cc1ccnc(NC(=O)c2ccc(Oc3ccnc4[nH]nc(N[C@@H]5CCCN(C(=O)C6CC6)C5)c34)cc2)c1` [compound 81, N-(4-cyanopyridin-2-yl)-4-[(3-{[(3R)-1-cyclopropanecarbonylpiperidin-3-yl]amino}-1H-pyrazolo[3,4-b]pyridin-4-yl)oxy]benzamide], the concentration for half-maximal inhibition (IC50) on Lck was 100 to 1000 nM; against EGFR it was 1000 to 10000 nM; on Btk it was < 100 nM.

Turning to `CN(C)C/C=C/C(=O)N1CCC[C@@H](Nc2n[nH]c3nccc(Oc4cccc(Oc5ccccc5)c4)c23)C1` [compound 13, (2E)-4-(dimethylamino)-1-[(3R)-3-{[4-(3-phenoxyphenoxy)-1H-pyrazolo[3,4-b]pyridin-3-yl]amino}piperidin-1-yl]but-2-en-1-one], the IC50 at Lck was 100 to 1000 nM; against EGFR it was 100 to 1000 nM; on Btk it was < 100 nM.

`CCC(=O)N1CC[C@@H](Oc2n[nH]c3nccc(Nc4ccc(C(=O)Nc5cc(C(F)(F)F)ccn5)cc4)c23)C1` [compound 71]: the figures for the half-maximal inhibitory concentration (IC50) at Lck, against EGFR and on Btk were 100 to 1000 nM, 1000 to 10000 nM and < 100 nM, respectively.
